Experiments:
[1] = system: patients having major depressive disorder; experiment: First Phase 2 clinical trial of NSI-189 in major depressive disorder (220 patients, SPCD design), original and retrospective analysis; type: in vivo, human
Description: A subsequent Phase 2 study was then performed on 220 patients with major depression (11). […] Treatment in either stage was given for six weeks. This design is termed a Sequential Parallel Clinical Design (SPCD) and is analyzed statistically by combining results in a pre-defined manner for outcomes differences between relevant groups (e.g., drug vs. placebo) in each of the stages individually. There are two depression outcome measures accepted by the FDA for the evaluation of adults. See the June 2018 FDA draft guidance entitled “Major Depressive Disorder: Developing Drugs for Treatment.” These are the Montgomery-Asberg Depression Rating Scale (MADRS), which was the primary outcome in this study, as well as the Hamilton Depression Rating Scale (HDRS) which was a key secondary outcome measure.
The remaining patients continued their treatment for stage 2 of the trial. Treatment in either stage was given for six weeks. Patients were eligible for study participation if they were between the ages of 18-60 years, with current major depressive disorder of at least 8 weeks duration according to the DSM-5, as diagnosed by the Structured Clinical Interview for the DSM-5 clinical trial version (SCID-5-CT) during the screen and remote assessment visits, and if they were scored at least 20 at screen, remote assessment, and baseline visits on the Montgomery-Asberg Depression Rating Scale (MADRS). The phase 2 study collected cognitive task performance data prior to treatment, and then again after both stage 1 and stage 2 of the treatment protocol. The purpose of doing so was to determine whether treatment with this compound results in improvement in cognitive functioning, as measured by a variety of behavioral measures.
Prior to the inventor's retrospective analysis, there was no consideration as to using behavioral measures to predict treatment outcome nor was there any analysis conducted to this effect. There was no consideration of using cognitive performance as a predictor but only as an outcome measure. […] The tasks in this battery included a simple reaction time (RT) task, a choice RT task, a one-back working memory task, and a visual learning task. Moreover, given the conversion to z-score, a composite cognitive task performance score could be computed by averaging the z-scores for each of the four tasks in the battery. Analyses focused on the MADRS primary outcome of the study. Statistical analyses focused on the complete trial (incorporating both stage 1 and stage 2 outcomes), using the SPCD analytic approach reported in the original study and thus aligned could be compared with the original statistical analysis plan. Mixed models repeated measures (MMRM) were used to predict change from baseline (at 2, 4, and 6 weeks) in clinical scores and included covariates for group (i.e., poor versus good cognition as defined by a given measure of interest), time, time x group, time x baseline MADRS and baseline MADRS. These covariates likewise were used in the original study, and thus results here can be compared with the all-comer results reported previously. Statistical significance was thus assessed on the primary outcome (MADRS change from baseline at 6 weeks across the SPCD design). The change in MADRS scores in the all corner (i.e. original sample) analysis is shown in FIG. 1(A) for comparison to subgroups as defined by cognitive task performance.
To examine the effect of baseline cognition on clinical outcomes, individuals were split at the mean of the average z-score across all tasks (thus a cognition composite score). This generates two groupings, which were termed poor cognition (below mean, negative z scores) or good cognition (above mean, positive z scores). The poor cognition group can also be termed to be cognitively impaired. […]

patients with MDD = experiment: Open-label Phase 2 clinical trial of NSI-189 as monotherapy or adjunctive treatment in depression (MADRS); type: in vivo, human
Description: These patients also underwent a more comprehensive cognitive battery than in the prior Phase 2 study. As above, MMRM analyses were applied on MADRS change from baseline scores in MDD patients. […] In this study, the current episode was determined by the either the prior two years, or the period within the prior two years since the last time at which two continuous months of euthymia occurred, whichever was shorter. Insufficient response to an antidepressant in the current episode was defined as less than a 50% reduction in symptoms (e.g., based on the total score on the MADRS or HDRS).
All analyses used a z=−0.75 cutoff to identify poor cognition patients (with z-scores determined with reference to a separate healthy population) in order to ensure that poor cognition patients are impaired in those tasks.
An overall cognitive performance variable comprised of measures of executive function (digit-symbol substitution task, Wisconsin card sorting task, trail making task, Corsi blocks, verbal fluency), information processing speed (flanker task, choice RT, simple RT) and verbal learning and/or memory was analyzed.
Learning and/or memory was assessed with a word list task, in which patients are given the word lists on five learning trials, and then memory is assessed through recall of those word lists immediately after learning and again after an approximately 20 minute delay (including after inclusion of a new distractor list of words). This computer-implemented task is named VM-REACT (Verbal memory recall computerized test) and is further described in Naparstek et al., J Psychiatr Res., 2019, 114:170-177 (PMID 31096177).
Another way of analyzing the PSD is through the observation that the background trend in the data can be quantified as a measure of background neural activity and has a 1/f relationship (where f is frequency). One way of quantifying this signal is termed the aperiodic exponent, which is estimated as the negative slope for the line of best fit over the 1-50 Hz range of the power spectral density in the log-log space (T. Donoghue, et al., Nat Neurosci, 23(12): 1655-1665 December 2020). Channel-wise correlation of the aperiodic exponent with treatment outcome (as percentage change in MADRS scores from baseline) was examined.

patients with PTSD = experiment: Open-label Phase 2 clinical trial of NSI-189 in PTSD (CAPS-5); type: in vivo, human; conditions: 40 mg BID, recall index cutoff z<=-0.5, week 4
Text: These patients underwent the same cognitive battery as patients with depression. As above, MMRM analyses were applied on the Clinician Administered PTSD Scale for DSM-5 (CAPS-5) change from baseline scores in PTSD patients. This analysis included 84 patients.
The overall sample using MMRMs that included core terms for time, baseline, group (i.e., poor versus good cognition as defined by a given measure of interest), time x group and time by baseline. The analyses shown in FIG. 12 used a z≤−0.5 cutoff on recall index scores in order to identify poor cognition patients (with z-scores determined with reference to a separate healthy population identically as for the depressed patients above). This cutoff ensured that poor cognition patients are impaired in this task.

[2] = system: subjects with moderate to severe depression; experiment: Additional clinical trial with NSI-189 (20 subjects, MADRS); type: in vivo, human; conditions: 80 mg (40 mg BID)
[3] = system: patients having major depressive disorder; conditions: cited from earlier work
[4] = system: patients with major depression; conditions: total daily doses of 40 mg, 80 mg or 120 mg; 18 patients on active drug; cited from earlier work
[5] = 80 mg, regardless of how the clinical population was defined
[6] = all patients, 40 mg or 80 mg daily vs placebo, full SPCD analysis or each stage alone

CC(C)CCNc1ncccc1C(=O)N1CCN(Cc2ccccc2)CC1 [NSI-189, (4-benzylpiperazin-1-yl)-[2-(3-methylbutylamino)pyridin-3-yl]methanone]
drug-placebo effect size Cohen's d, change in MADRS scores ([1]; 80 mg arm vs placebo, poor cognition group (cognitive composite score), SPCD analysis Stage 1 and Stage 2, p=0.014): 0.58
change in MADRS scores, either drug arm versus placebo ([1]; good cognition group, 40 mg or 80 mg, p=0.25): no significant differences
change in MADRS scores, 40 mg group versus placebo ([1]; poor cognition group, p=0.39): not significant
Cohen's d, change in MADRS, 80 mg arm versus placebo ([1]; poor cognition group, stage 1, week 2, p=0.045): 0.55
Cohen's d, change in MADRS, 80 mg arm versus placebo ([1]; poor cognition group, stage 1, week 4, p=0.01): 0.7
Cohen's d, change in MADRS, 80 mg arm versus placebo ([1]; poor cognition group, stage 1, week 6, p=0.03): 0.59
change in MADRS scores, 80 mg versus placebo ([1]; poor self-reported cognition, CPFQ score >25): no difference is seen between treatment arms
MADRS outcome, self-reported poor versus good cognition (patients with MDD; 80 mg (40 mg BID), CPFQ>25 vs <=25): no significant differences
MADRS outcome, subjective diminishment of memory recall (CPFQ item) (patients with MDD; 80 mg (40 mg BID), moderate or greater vs minimal or less diminishment): not predictive of outcome
reduction in the MADRS score, poor versus good cognition patients (patients with MDD; 80 mg (40 mg BID), overall cognitive composite cutoff z=-0.75): significantly better improvement in depressive symptoms
Cohen's d, MADRS outcome, poor delayed recall versus good (patients with MDD; 80 mg (40 mg BID), week eight, p=0.004): 0.61
Cohen's d, MADRS outcome, poor immediate recall versus good (patients with MDD; 80 mg (40 mg BID), week eight, p=0.010): 0.56
Cohen's d, MADRS outcome, poor delayed recall versus good (patients with MDD; 80 mg (40 mg BID), week four, p=0.045): 0.40
Cohen's d, MADRS outcome, poor delayed recall versus good (patients with MDD; 80 mg (40 mg BID), week six, p=0.001): 0.67
Cohen's d, MADRS outcome, poor immediate recall versus good (patients with MDD; 80 mg (40 mg BID), week six, p=0.022): 0.48
Cohen's d, MADRS outcome, poor delayed recall versus good (patients with MDD; 80 mg (40 mg BID), week two, p=0.028): 0.43
change in MADRS from baseline, low versus high aperiodic exponent patients (patients with MDD; 80 mg, EEG resting eyes closed, split at the median): significantly better depression outcome
remission rates, poor versus good learning and/or memory patients (patients with MDD; [5]): approximately double
response rates, poor versus good learning and/or memory patients (patients with MDD; [5]): approximately double
response rates on the MADRS (50% or greater reduction) (patients with MDD; poor learning and/or memory patients, 80 mg open label, across definitions of the clinical population): 60-82%
CAPS-5 change from baseline, poor versus good cognition (patients with PTSD): significantly greater reduction in PTSD symptoms
MADRS improvement, poor versus good cognition patients ([2]; poor verbal memory z<-0.5, week 8): trend
MADRS improvement, poor versus good cognition patients ([2]; poor verbal memory z<-0.5, weeks 2, 4, and 6): large and statistically significantly greater improvement
effects on several secondary measures compared to placebo ([3]; 40 mg dose, not corrected for multiple comparisons): nominally significant effects
efficacy on any study measure ([3]; 80 mg daily dose, all patients): did not demonstrate efficacy on any study measure
antidepressant efficacy on the HDRS key secondary measure [3, 6]: failed to demonstrate any evidence of antidepressant efficacy
antidepressant efficacy on the MADRS primary outcome measure [3, 6]: failed to demonstrate any evidence of antidepressant efficacy
all-comer drug placebo difference, Cohen's d ([3]; all-comer population, prior Phase 2 study): ~0.2
antidepressant efficacy [4]: promising evidence for potential antidepressant efficacy
